Measurements from US8815535B2, “Disk diffusion assay for oritavancin” (The Medicines Company, priority 2011, dated 2014).
Where two headings read alike, the source gives them in different places.

Experiments:
MSSA ATCC 25923 = experiment: Disk diffusion assay (zone of inhibition); type: cell-based, Staphylococcus aureus; conditions: Staphylococcus aureus; for zone of inhibition at 12.5 µg/disc: 12.5 μg in 4% P80/Span 80 (1:1); for zone of inhibition at 100 µg/disc: 100 μg in 4% P80/Span 80 (1:1); for zone of inhibition at 200 µg/disc: 200 μg in 4% P80/Span 80 (1:1); for zone of inhibition at 180 µg/disc: 180 μg; for zone of inhibition at 270 µg/disc: 270 μg
From the text: The study was designed to identify conditions that improve oritavancin diffusion in agar and consequently yield a zone diameter ≧15 mm for the CLSI quality control strain MSSA ATCC 25923. Excipients that increased the disk diffusion of oritavancin in agar relative to disks containing only oritavancin were identified and selected for further study. […] A prediffusion step at room temperature was introduced to maximize oritavancin diffusion prior to initiation of bacterial growth. In this step, the antimicrobial disks were placed on agar plates seeded with a bacterial isolate and incubated at room temperature for 3 hours. Plates were then incubated overnight at 37° C. Zone diameters around the disks in which bacterial growth was inhibited were measured with a ruler and reported in millimeters.
Ethanol-sterilized Whatman paper disks (6 mm diameter) were allowed to dry then impregnated with 20 microliters of oritavancin solution containing total amounts ranging from 90 to 360 micrograms. Disks were allowed to dry at room temperature for various times prior to use.
Bacterial suspensions were prepared and adjusted to an optical density of 0.1 at 600 nm. […] The plate was swabbed a second time, perpendicular to the orientation of the first swab. To assess the impact of prediffusion on diameter of inhibition zones, two disks were immediately placed on one half of the plate and the plate was incubated for 3 hours at room temperature. After 3 hours, two additional disks were placed on the other half of the plate then the plate was incubated overnight at 37° C. Zone diameters were measured with a ruler and reported in millimeters. […]
Oritavancin powder was dissolved in freshly-prepared solutions of the indicated excipients at concentrations of 0.625, 1.25, 2.5, 5, and 10 mg/ml (adjusted for potency based on lot 875561L00 purity of 83.1%) by vortexing for a minimum of 5 minutes. Oritavancin solutions in the various excipients, while not visually clear, were free from any apparent particulates as assessed visually. Sterile Oxoid blank disks were impregnated with 20 μl of these oritavancin solutions, resulting in oritavancin disk loads ranging from 12.5 to 200 μg. Unless indicated otherwise, disks were allowed to dry overnight at room temperature prior to use.
[…] Swabbing was continued at a right angle and then at an oblique angle to the first and second swabs. Disks were placed upon the seeded plates with sterile forceps. Plates were then incubated overnight at 37° C. and inhibition zone diameters were measured with a ruler and reported in millimeters.

hVISA NRS2 = experiment: Disk diffusion assay (zone of inhibition); type: cell-based; conditions: Staphylococcus aureus, Oxoid disks, 20 μl of 18 mg/ml oritavancin in 5% P80, stored 30 days at room temperature, prediffusion 6 hours at 4° C., read-out: Inhibition zone diameter
[1] = read-out: Inhibition zone diameter, 25923, calcium alginate swab, dried overnight
[2] = read-out: Inhibition zone diameter, 25923, cotton swab, dried overnight, estimate of diameter
[3] = read-out: Inhibition zone diameter, MSSA ATCC 25923, Oxoid disk, 2.5% P80, stored 7 days, prediffusion 3 h at 4° C., duplicates
[4] = read-out: Inhibition zone diameter, MSSA ATCC 25923, Oxoid disk, 5% P80, stored 7 days, prediffusion 3 h at 4° C., duplicates
[5] = read-out: Inhibition zone diameter, MSSA ATCC 25923, Whatman #5 disk, 2.5% P80, stored 7 days, prediffusion 3 h at 4° C., duplicates
[6] = read-out: Inhibition zone diameter, MSSA ATCC 25923, Whatman #5 disk, 5% P80, stored 7 days, prediffusion 3 h at 4° C., duplicates

CN[C@H](CC(C)C)C(=O)N[C@H]1C(=O)N[C@@H](CC(N)=O)C(=O)N[C@H]2C(=O)N[C@H]3C(=O)N[C@H](C(=O)N[C@H](C(=O)O)c4cc(O)cc(O)c4-c4cc3ccc4O)[C@H](O[C@H]3C[C@](C)(N)[C@@H](O)[C@H](C)O3)c3ccc(c(Cl)c3)Oc3cc2cc(c3O[C@@H]2O[C@H](CO)[C@@H](O)[C@H](O)[C@H]2O[C@H]2C[C@](C)(NCc3ccc(-c4ccc(Cl)cc4)cc3)[C@@H](O)[C@H](C)O2)Oc2ccc(cc2Cl)[C@H]1O [oritavancin, N-(4-(4-chlorophenyl)benzyl)A82846B]
zone of inhibition at 12.5 µg/disc (MSSA ATCC 25923; [1]): 20 mm
zone of inhibition at 12.5 µg/disc (MSSA ATCC 25923; [2]): 27 mm
zone of inhibition at 25 µg/disc (MSSA ATCC 25923; read-out: Inhibition zone diameter, 25923, 25 μg in 4% P80/Span 80 (1:1), cotton swab (Table 14), dried overnight, estimate of diameter): 30 mm
zone of inhibition at 50 µg/disc (MSSA ATCC 25923; read-out: Inhibition zone diameter, 25923, 50 μg in 4% P80/Span 80 (1:1), calcium alginate swab, dried overnight): 19 mm
zone of inhibition at 50 µg/disc (MSSA ATCC 25923; read-out: Inhibition zone diameter, 25923, 50 μg in 4% P80/Span 80 (1:1), cotton swab, dried overnight, estimate of diameter): 24 mm
zone of inhibition at 100 µg/disc (MSSA ATCC 25923; [1]): 14 mm
zone of inhibition at 100 µg/disc (MSSA ATCC 25923; [2]): 21 mm
zone of inhibition at 200 µg/disc (MSSA ATCC 25923; [1]): 11 mm
zone of inhibition at 200 µg/disc (MSSA ATCC 25923; [2]): 15 mm
zone of inhibition at 1250 µg/mL (MSSA ATCC 25923; read-out: Inhibition zone diameter, ATCC 25923, 25 μg (20 μl of 1.25 mg/ml) in 4% P80/Span 80 (1:1), calcium alginate swab, dried overnight): 21 mm
zone of inhibition at 50 µg/disc (MSSA ATCC 25923; read-out: Inhibition zone diameter, ATCC 25923, 50 μg, 4% P80/Span 80 ratio 50:50, dried overnight, estimate of diameter): 23 mm
zone of inhibition at 50 µg/disc (MSSA ATCC 25923; read-out: Inhibition zone diameter, ATCC 25923, 50 μg, 4% P80/Span 80 ratio 60:40, dried overnight, estimate of diameter): 21 mm
zone of inhibition at 50 µg/disc (MSSA ATCC 25923; read-out: Inhibition zone diameter, ATCC 25923, 50 μg, 4% P80/Span 80 ratio 70:30, dried overnight, estimate of diameter): 19 mm
zone of inhibition at 50 µg/disc (MSSA ATCC 25923; read-out: Inhibition zone diameter, ATCC 25923, 50 μg, 4% P80/Span 80 ratio 80:20, dried overnight, estimate of diameter): 16 mm
zone of inhibition at 50 µg/disc (MSSA ATCC 25923; read-out: Inhibition zone diameter, ATCC 25923, 50 μg, 4% P80/Span 80 ratio 90:10, dried overnight, estimate of diameter): 13 mm
zone of inhibition at 1250 µg/mL (MSSA ATCC 25923; read-out: Inhibition zone diameter, ATCC 25923, 20 μl of 1.25 mg/ml oritavancin in 1% poly(ethylene glycol) sorbitol hexaoleate): ≤ 15 mm
zone of inhibition at 1250 µg/mL (MSSA ATCC 25923; read-out: Inhibition zone diameter, ATCC 25923, 20 μl of 1.25 mg/ml oritavancin in 5% Brij 30): ≤ 15 mm
zone of inhibition at 1250 µg/mL (MSSA ATCC 25923; read-out: Inhibition zone diameter, ATCC 25923, 20 μl of 1.25 mg/ml oritavancin in 5% Merpol SE): ≤ 15 mm
zone of inhibition at 18000 µg/mL (MSSA ATCC 25923; read-out: Inhibition zone diameter, ATCC 25923, Oxoid disks, 20 μl of 18 mg/ml oritavancin in 5% P80, stored 30 days at room temperature, prediffusion 6 hours at 4° C.): > 15 mm
zone of inhibition at 1250 µg/mL (MSSA ATCC 25923; read-out: Inhibition zone diameter, MSSA ATCC 25923, 20 μl of 1.25 mg/ml in 4% P80/Span 80 (1:1), cotton swab (FIG. 2), dried overnight): ~24 mm
zone of inhibition at 1250 µg/mL (MSSA ATCC 25923; read-out: Inhibition zone diameter, MSSA ATCC 25923, 20 μl of 1.25 mg/ml in 4% P80/Span 80 (1:1), flocked swab (FIG. 2), dried overnight): ~24 mm
zone of inhibition at 1250 µg/mL (MSSA ATCC 25923; read-out: Inhibition zone diameter, MSSA ATCC 25923, 20 μl of 1.25 mg/ml in 4% P80/Span 80 (1:1), foam swab (FIG. 2), dried overnight): ~26 mm
zone of inhibition at 1250 µg/mL (MSSA ATCC 25923; read-out: Inhibition zone diameter, MSSA ATCC 25923, 20 μl of 1.25 mg/ml in 4% P80/Span 80 (1:1), polyester swab (FIG. 2), dried overnight): ~24 mm
zone of inhibition at 1250 µg/mL (MSSA ATCC 25923; read-out: Inhibition zone diameter, MSSA ATCC 25923, 20 μl of 1.25 mg/ml in 4% P80/Span 80 (1:1), rayon swab (FIG. 2), dried overnight): ~22 mm
zone of inhibition at 180 µg/disc (MSSA ATCC 25923; [3]): 12.5 mm
zone of inhibition at 180 µg/disc (MSSA ATCC 25923; [4]): 12 mm
zone of inhibition at 270 µg/disc (MSSA ATCC 25923; [3]): 13 mm
zone of inhibition at 270 µg/disc (MSSA ATCC 25923; [4]): 13 mm
zone of inhibition at 360 µg/disc (MSSA ATCC 25923; read-out: Inhibition zone diameter, MSSA ATCC 25923, Oxoid disk, 360 μg, 2.5% P80, stored 7 days, prediffusion 3 h at 4° C., duplicates): 13 mm
zone of inhibition at 360 µg/disc (MSSA ATCC 25923; read-out: Inhibition zone diameter, MSSA ATCC 25923, Oxoid disk, 360 μg, 5% P80, stored 7 days, prediffusion 3 h at 4° C., duplicates): 14 mm
zone of inhibition at 180 µg/disc (MSSA ATCC 25923; [5]): 15.5 mm
zone of inhibition at 180 µg/disc (MSSA ATCC 25923; [6]): 14.5 mm
zone of inhibition at 270 µg/disc (MSSA ATCC 25923; [5]): 15.5 mm
zone of inhibition at 270 µg/disc (MSSA ATCC 25923; [6]): 16 mm
zone of inhibition at 360 µg/disc (MSSA ATCC 25923; read-out: Inhibition zone diameter, MSSA ATCC 25923, Whatman #5 disk, 360 μg, 2.5% P80, stored 7 days, prediffusion 3 h at 4° C., duplicates): 15.5 mm
zone of inhibition at 360 µg/disc (MSSA ATCC 25923; read-out: Inhibition zone diameter, MSSA ATCC 25923, Whatman #5 disk, 360 μg, 5% P80, stored 7 days, prediffusion 3 h at 4° C., duplicates): 16 mm
zone of inhibition at 360 µg/disc (MSSA ATCC 25923; read-out: Zone diameter (mm ± SD), ATCC 25923, 360 μg in 5% P80, Average of experiments, no prediffusion): 14.9 ± 0.5 mm
zone of inhibition at 360 µg/disc (MSSA ATCC 25923; read-out: Zone diameter (mm ± SD), ATCC 25923, 360 μg in 5% P80, Average of experiments, prediffusion): 17.5 ± 0.6 mm
zone of inhibition at 360 µg/disc (MSSA ATCC 25923; read-out: Zone diameter (mm ± SD), ATCC 25923, 360 μg in 5% P80, Experiment 1, disks stored 14 days, 3 h prediffusion at room temperature): 18 mm
zone of inhibition at 360 µg/disc (MSSA ATCC 25923; read-out: Zone diameter (mm ± SD), ATCC 25923, 360 μg in 5% P80, Experiment 2, disks stored 8 days, 3 h prediffusion at room temperature): 17 mm
zone of inhibition at 18000 µg/mL (hVISA NRS2): 16.5 mm
